IC50 and Ki data for 14 compounds are collected here from ChEMBL document CHEMBL1127721, “EPSP synthase inhibitor design IV. New aromatic substrate analogs and symmetrical inhibitors containing novel 3-phosphate mimics” (Bioorg Med Chem Lett, 1994).

Molecules are shown by their SMILES. pIC50, pKi: −log10 of the molar value.

For one assay, the target named is T1, 3-phosphoshikimate 1-carboxyvinyltransferase (Escherichia coli K-12, UniProt P0A6D3).
T1 sequence (P0A6D3 whole entry): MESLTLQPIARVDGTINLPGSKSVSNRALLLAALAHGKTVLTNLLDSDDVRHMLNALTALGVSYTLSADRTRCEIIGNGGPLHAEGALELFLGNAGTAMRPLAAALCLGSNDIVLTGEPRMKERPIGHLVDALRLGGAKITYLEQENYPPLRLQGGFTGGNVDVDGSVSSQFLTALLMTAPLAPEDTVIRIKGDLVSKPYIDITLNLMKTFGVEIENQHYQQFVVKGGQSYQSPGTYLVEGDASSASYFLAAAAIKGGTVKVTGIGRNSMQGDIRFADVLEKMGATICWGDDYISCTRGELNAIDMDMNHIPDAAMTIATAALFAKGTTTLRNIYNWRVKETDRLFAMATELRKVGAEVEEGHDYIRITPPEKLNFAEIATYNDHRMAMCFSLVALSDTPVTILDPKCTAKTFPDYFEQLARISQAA
Kind of assay: Inhibition of Escherichia coli EPSP synthase.
Conditions: not given
The term pIC50 denotes −log10 of the IC50, conventionally taken in molar units. A lower pIC50 goes with a large IC50. Compound `O=C(O)c1cc(O)cc(OP(=O)(O)O)c1` showed a pIC50 of 2.10.
`O=C(O)c1cc(O)cc(C(O)P(=O)(O)O)c1` (stereo not drawn) showed a pIC50 of 2.00.
Still for that read-out and setting: under `O=C(O)c1cc(CP(=O)(O)O)cc(CP(=O)(O)O)c1` stands 2.52.
The compound `O=C(O)c1cc(O)cc(OC(C(=O)O)C(=O)O)c1` gave a pIC50 of 2.00.
`O=C(O)COc1cc(C(=O)O)cc(P(=O)(O)O)c1` showed a pIC50 of 2.00.
Consider `O=C(O)COc1cc(OP(=O)(O)O)cc(C(=O)O)c1`, for which the pIC50 is 2.85.
`O=C(O)COc1cc(CP(=O)(O)O)cc(C(=O)O)c1` had a pIC50 of 2.00.
Turning to `O=C(O)c1cc(O)cc(CP(=O)(O)O)c1`, the negative-log IC50 (pIC50) is less than 1.10.
`O=C(O)COc1cc(C(=O)O)cc(C(O)P(=O)(O)O)c1` (stereo not drawn) gave a pIC50 of 2.52.
In turn, `O=C(O)c1cc(OP(=O)(O)O)cc(OP(=O)(O)O)c1` showed a pIC50 of 4.07.
Broadly, the pKi is −log10 of the Ki, conventionally taken in molar units. Consider `O=C(O)c1cc(OC(C(=O)O)P(=O)(O)O)cc(OP(=O)(O)O)c1` (stereo not drawn), for which the pIC50 was 4.70 and the pKi is 6.80.
Compound `O=C(O)COc1cc(OC(C(=O)O)C(=O)O)cc(C(=O)O)c1` showed a pIC50 of 2.70.
The compound `O=C(O)CO[C@@H]1CC(C(=O)O)=C[C@@H](OP(=O)(O)O)[C@@H]1O` had a pIC50 of 4.00 and a negative logarithm of the Ki (pKi) of 5.82.
The compound `O=C(O)c1cc(OC(C(=O)O)C(=O)O)cc(OC(C(=O)O)C(=O)O)c1` showed a pIC50 of 3.68.

The same assay, now with this note: read-out: Ki app.
On to `O=C(O)c1cc(OP(=O)(O)O)cc(OP(=O)(O)O)c1`, for which the pKi is 6.11.
On to `O=C(O)c1cc(OC(C(=O)O)C(=O)O)cc(OC(C(=O)O)C(=O)O)c1`, for which the pKi is 5.60.
